Molecular target: Dephosphorylated BTK (Homo sapiens, UniProt Q06187)
Experiment: Test of activity inhibition against dephosphorylated BTK (mobility shift assay)

Dephosphorylated BTK, sequence (Q06187 whole entry): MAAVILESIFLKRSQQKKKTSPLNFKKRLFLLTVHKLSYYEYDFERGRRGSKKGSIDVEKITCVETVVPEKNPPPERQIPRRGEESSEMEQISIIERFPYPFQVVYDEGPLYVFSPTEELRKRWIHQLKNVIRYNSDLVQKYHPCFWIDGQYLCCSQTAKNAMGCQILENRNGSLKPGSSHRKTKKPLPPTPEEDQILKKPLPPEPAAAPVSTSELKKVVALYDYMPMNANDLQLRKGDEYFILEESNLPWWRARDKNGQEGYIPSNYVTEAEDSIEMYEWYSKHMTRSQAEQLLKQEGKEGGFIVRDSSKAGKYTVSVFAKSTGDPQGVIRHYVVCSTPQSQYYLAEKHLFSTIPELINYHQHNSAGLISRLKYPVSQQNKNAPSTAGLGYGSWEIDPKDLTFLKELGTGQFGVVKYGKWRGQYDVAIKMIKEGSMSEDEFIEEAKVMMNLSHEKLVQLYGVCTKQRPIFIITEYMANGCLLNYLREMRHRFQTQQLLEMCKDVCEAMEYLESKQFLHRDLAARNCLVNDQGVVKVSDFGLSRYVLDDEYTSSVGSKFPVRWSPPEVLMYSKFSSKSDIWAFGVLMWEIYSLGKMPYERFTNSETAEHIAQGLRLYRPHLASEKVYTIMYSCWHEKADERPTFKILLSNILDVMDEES

Row | Compound | IC50
1 | CCOC(=O)c1cc(Nc2nc(N)nc(-c3cccc(N4CCc5cc(C6CC6)cc(F)c5C4=O)c3CO)n2)cn1C [Example 219, Ethyl 4-({4-amino-6-[3-(6-cyclo-propyl-8-fluoro-1-oxo-3,4-dihydroisoquinolin-2(1H)-yl)-2-(hydroxy-methyl)phenyl]-1,3,5-triazin-2-yl}ami-no)-1-methyl-1H-pyrrole-2-carboxylate] | 0.8 nM
2 | Nc1nc(Nc2ccc(N3CCOCC3)cc2)nc(-c2cccc(NC(=O)c3ccc4c(c3)CCC4)c2CO)n1 [Example 171, N-(3-{4-Amino-6-[(4-morpholinophenyl)amino]-1,3,5-triazin-2-yl}-2-(hydroxymethyl)phe-nyl)-2,3-dihydro-1H-indene-5-carboxamide] | 26 nM
3 | Nc1nc(Nc2ccc(N3CCC(O)CC3)cc2)nc(-c2cccc(N3CCc4cc(C5CC5)cc(F)c4C3=O)c2CO)n1 [Example 52, 2-[3-(4-Amino-6-{[4-(4-hydroxypiperidin-1-yl)phenyl]amino}-1,3,5-triazin-2-yl)-2-(hy-droxymethyl)phenyl]-6-cyclopropyl-8-fluoro-3,4-dihydroisoquinolin-1(2H)-one] | 1.6 nM
4 | Cc1cc(Nc2nc(N)nc(-c3cccc(NC(=O)c4ccc(C(C)(C)C)cc4)c3CO)n2)cc(C)c1O [Example 123, N-(3-{4-Amino-6-[(4-hy-droxy-3,5-dimethyl-phenyl)amino]-1,3,5-tri-azin-2-yl}-2-(hydroxy-methyl)phenyl)-4-(tert-butyl)benzamide] | 1.4 nM
5 | CN1CCN(c2ccc(Nc3nc(N)nc(-c4cccc(NC(=O)c5ccc(C(C)(C)C)cc5)c4CO)n3)cc2)CC1 [Example 146, N-[3-(4-Amino-6-{[4-(4-methylpiperazin-1-yl)phenyl]amino}-1,3,5-triazin-2-yl)-2-(hy-droxymethyl)phenyl]-4-(tert-butyl)benzamide] | 0.4 nM
6 | CC(C)(C)c1ccc(C(=O)Nc2cccc(-c3nc(N)nc(Nc4ccc(-c5nn[nH]n5)cc4)n3)c2CO)cc1 [Example 202, N-[3-(4-{[4-(1H-Tetra-zol-5-yl)phenyl]amino}-6-amino-1,3,5-triaz-in-2-yl)-2-(hydroxy-methyl)phenyl]-4-(tert-butyl)benzamide] | 1.3 nM
7 | CC(C)(C)c1ccc(C(=O)Nc2cccc(-c3nc(N)nc(Nc4ccc(N5CCOC5=O)cc4)n3)c2CO)cc1 [Example 156, N-[3-(4-Amino-6-{[4-(2-oxooxazolidin-3-yl)phenyl]amino}-1,3,5-tri-azin-2-yl)-2-(hydroxy-methyl)phenyl]-4-(tert-butyl)benzamide] | 0.5 nM
8 | CC(C)(C)c1cc2c(s1)C(=O)N(c1cccc(-c3nc(N)nc(Nc4ccc(N5CCOCC5)cc4)n3)c1CO)C2 [Example 73, 5-(3-{4-Amino-6-[(4-morpho-linophenyl)amino]-1,3,5-triazin-2-yl}-2-(hydroxymethyl)phe-nyl)-2-(tert-butyl)-4H-thieno[2,3-c]pyrrol-6(5H)-one] | 1.3 nM

More lines, in order of falling IC50, values ahead:

Row | IC50 | Compound
9 | 1.9 nM | CC(C)(C)c1ccc(C(=O)Nc2cccc(-c3nc(N)nc(Nc4ccc5nc[nH]c5c4)n3)c2CO)cc1 [Example 144, N-(3-{4-[(1H-Benzo[d]imidazol-6-yl)amino]-6-amino-1,3,5-triazin-2-yl}-2-(hydroxymeth-yl)phenyl)-4-(tert-butyl)benzamide]
10 | 1.5 nM | Nc1nc(Nc2cc3n(c2)CCNC3=O)nc(-c2cccc(N3CCc4cc(C5CC5)cc(F)c4C3=O)c2CO)n1 [Example 267, 2-(3-{4-Amino-6-[(1-oxo-1,2,3,4-tetrahydro-pyrrolo[1,2-a]pyrazin-7-yl)amino]-1,3,5-tri-azin-2-yl}-2-(hydroxy-methyl)phenyl)-6-cyclo-propyl-8-fluoro-3,4-dihydroisoquinolin-1 (2H)-one]
11 | 1.3 nM | Cc1c(NC(=O)c2ccc(C(C)(C)C)cc2)cccc1-c1nc(N)nc(Nc2ccc(N3CCN(CCO)CC3)cc2)n1 [Example 93, N-{3-[4-Amino-6-({4-[4-(2-hydroxyethyl)piperazin-1-yl]phenyl}ami-no)-1,3,5-triazin-2-yl]-2-methylphenyl}-4-(tert-butyl)benzamide]

From patent US20150011751A1, “NOVEL TRIAZINE DERIVATIVE” (CARNA BIOSCIENCES, INC., priority 2012, published 2015)
